In US12630602B2, “Methods and compositions for treating diseases and disorders of the nervous system” (Rutgers, The State University of New Jersey, priority 2016, dated 2026):

Tested on: retinal cells expressing the inhibitory hM4Di DREADD
Assay: Electroretinography (ERG) after CNO in rats expressing hM4Di DREADD in retina
Format: in vivo

C[N+]1([O-])CCN(C2=Nc3cc(Cl)ccc3Nc3ccccc32)CC1 [CNO, clozapine N-oxide]
ERG wave (CNO by intraperitoneal injection, 20 minutes after, rats with AAV-hSyn-hM4Di (FIG. 2C)): inhibition of the ERG wave
ERG, function in retinal cells (CNO eye drops, 10 minutes and 20 minutes after, rats with AAV-hSyn-hM4Di (FIG. 2D)): decreased function in retinal cells at both timepoints
eliciting DREADD function, eye drops versus systemic delivery (ERG, CNO via eye drops compared with systemic delivery): at least as successful
